PMC9284540 (Journal of Molecular Biology, 2022)
Several values for one entry are separate records, joined by “and”; a condition that tells them apart may be missing. Identical values can stand only once.

Assays:
SARS-CoV-2 MD [1] = target: T1, SARS-CoV-2 MD (Severe acute respiratory syndrome coronavirus 2, UniProt P0DTD1); assay type: binding
MAYV MD [2] = target: T2, MAYV MD (Mayaro virus, UniProt Q8QZ73); assay type: binding
viral MDs = assay type: biochemical
CHIKV MD [3] = target: T3, CHIKV MD (Chikungunya virus, UniProt Q8JUX6); assay: biochemical; assay type: binding
MAYV MD [4] = target: T2, MAYV MD; assay type: biochemical
CHIKV MD [5] = target: T3, CHIKV MD; assay type: biochemical
CHIKV MD [6] = target: T3, CHIKV MD; assay type: binding
hPARP14 MD2 = hPARP14 MD2 (Homo sapiens, UniProt Q460N5); assay: biochemical; assay type: binding
SARS-CoV-2 MD [7] = target: T1, SARS-CoV-2 MD; assay type: biochemical
SARS-CoV-2 MD [8] = target: T1, SARS-CoV-2 MD; assay type: binding; remark: listed apart in the source

T2 sequence (Q8QZ73 1335-1493 limits assumed): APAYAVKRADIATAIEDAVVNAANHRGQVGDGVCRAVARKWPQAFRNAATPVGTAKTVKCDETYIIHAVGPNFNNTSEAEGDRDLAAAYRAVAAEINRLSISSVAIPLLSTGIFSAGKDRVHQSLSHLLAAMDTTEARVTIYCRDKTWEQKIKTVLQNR
T3 sequence (Q8JUX6 1334-1493 limits assumed): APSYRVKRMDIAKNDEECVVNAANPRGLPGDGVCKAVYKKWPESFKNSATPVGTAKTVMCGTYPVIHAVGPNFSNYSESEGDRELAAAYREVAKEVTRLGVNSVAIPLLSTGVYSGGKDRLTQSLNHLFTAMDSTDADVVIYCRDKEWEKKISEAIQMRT
Sequence of hPARP14 MD2 (Q460N5 999-1191): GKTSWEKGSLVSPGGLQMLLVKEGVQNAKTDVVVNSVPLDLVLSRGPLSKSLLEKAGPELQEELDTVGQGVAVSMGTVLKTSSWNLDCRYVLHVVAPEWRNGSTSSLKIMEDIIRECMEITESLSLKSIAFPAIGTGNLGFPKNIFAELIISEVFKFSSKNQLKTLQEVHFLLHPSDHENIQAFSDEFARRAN

Structure (SMILES): Nc1ncnc2c1ncn2[C@@H]1O[C@H](CO)[C@@H](O)[C@H]1O [Adenosine]
- exchange regime on NMR time scale between free and bound form (SARS-CoV-2 MD [1]): fast exchange regime

Structure (SMILES): N#C[C@@]1(c2ccc3c(N)ncnn23)O[C@H](CO)[C@@H](O)[C@H]1O [GS-441524]
- exchange regime on NMR time scale (MAYV MD [2]): fast and intermediate exchange regime
- reduction of the k value (viral MDs): 15–32%
- exchange regime on NMR time scale between free and bound form (SARS-CoV-2 MD [1]): slow exchange regime
- Kd (CHIKV MD [3]): ~100 µM
- Initial substrate decay rate k (MAYV MD [4]): 0.190 ± 0.002 µM/min and 0.153 ± 0.003 µM/min
- Initial substrate decay rate k (CHIKV MD [5]): 0.179 ± 0.003 µM/min
- exchange regime on NMR time scale (CHIKV MD [6]): fast and intermediate exchange regime
- Kd (hPARP14 MD2): ~250 µM
- Initial substrate decay rate k (SARS-CoV-2 MD [7]): 0.121 ± 0.002 µM/min and 0.075 ± 0.003 µM/min
- reduction of the k value (SARS-CoV-2 MD [7]): 60%
- -T*ΔS (SARS-CoV-2 MD [8]): -6.49 kJ/mol
- ΔH (SARS-CoV-2 MD [8]): -22 ± 0.544 kJ/mol
- ΔS (SARS-CoV-2 MD [8]): +5.2 cal/mol K-1

Structure (SMILES): CCC(CC)COC(=O)[C@H](C)N[P@](=O)(OC[C@H]1O[C@@](C#N)(c2ccc3c(N)ncnn23)[C@H](O)[C@@H]1O)Oc1ccccc1 [Remdesivir]
- Initial substrate decay rate k (SARS-CoV-2 MD [7]): 0.157 ± 0.012 µM/min and 0.169 ± 0.002 µM/min
